This is an account of results in patent publication US11827690B2, “ApoC-II mimetic peptides” (THE UNITED STATES OF AMERICA, as represented by the …, priority 2017, dated 2023).

In assay [1] the target is T1, LPL inhibited by apoC-III (Bos taurus, UniProt P11151).
T1 sequence (P11151 29-478): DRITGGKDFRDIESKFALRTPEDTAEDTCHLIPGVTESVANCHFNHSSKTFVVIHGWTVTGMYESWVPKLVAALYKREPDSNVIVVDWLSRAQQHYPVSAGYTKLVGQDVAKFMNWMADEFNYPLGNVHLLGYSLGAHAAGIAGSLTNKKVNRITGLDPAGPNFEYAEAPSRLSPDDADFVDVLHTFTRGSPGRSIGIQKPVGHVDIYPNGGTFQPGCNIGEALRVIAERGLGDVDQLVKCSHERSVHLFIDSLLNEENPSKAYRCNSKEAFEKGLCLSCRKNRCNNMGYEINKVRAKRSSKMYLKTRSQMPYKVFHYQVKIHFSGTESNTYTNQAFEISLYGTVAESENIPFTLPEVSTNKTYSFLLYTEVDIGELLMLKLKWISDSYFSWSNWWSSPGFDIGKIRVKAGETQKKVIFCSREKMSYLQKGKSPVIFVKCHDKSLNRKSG
Briefly: LPL activation assay with Intralipid as substrate and recombinant apoC-III as an inhibitor. The format is biochemical. The following applies: Intralipid substrate, FIG. 31. Here is the method:
(§1) LPL activity assay: 10 μL of Intralipid, human plasma sample, or mouse plasma sample was added in each well using repeater pipette. 10 μL (or 15 μL in the wells with no LPL control) of PBS and 10 μL of 1% BSA was added in each well using repeater pipette. 10 μL of peptides were added to corresponding wells in vertical triplicates (lowest concentration is on a left, highest is on the right). The plate was spun down at 1000 RPM for 10 seconds to mix and to remove the solutions from the wall of each well. The plate was put on ice and 5 μL of LPL was added using repeater pipette. The plate was spun down again at 1000 RPM for 10 seconds. The plate was covered and put back on ice for an incubation of 30 min. The plate was then moved to 37° C. and incubated for 1 hour.
(§2) Free fatty acids (NEFA) assay: 45 μL of 5 nmoL standard and 0 nmoL control (0.2% BSA) were added to corresponding wells. 225 μL of reagent A was added in each well using the reagent tray and 12-channel pipette. The plate was incubated for 10 min before 75 μL of reagent B was added to each well using the reagent tray and 12-channel pipette. The plate was not covered due to the high volume. The absorbance at 550 nm and 660 nm was measured.
LPL assay was performed using Intralipid, high TG human plasma (1:50 dilution), or apoC-III transgenic mouse plasma (1:50 dilution). When Intralipid was used as a substrate, 25 or 50 μM recombinant ApoC-III was added as an inhibitor. When the high TG human plasma was used as a substrate, 25 or 50 μM recombinant ApoC-III was added as an inhibitor with or without pre-incubation at 37° C. for 1 hour. An apoC-II mimetic peptide was added at various concentrations.

In a further assay the target is T2, bovine LPL (Bos taurus, UniProt P11151).
T2 sequence (P11151 29-478): T1 sequence (P11151 29-478)
The experiment in a line: in vitro LPL assay using hypertriglyceridemia patient sera as substrate. The format is biochemical. The conditions noted are these: patient sera TG about 1000 mg/dL to about 1700 mg/dL, FIGS. 15A-D. The method, then: Preparation of LPL: frozen stock of 10 μL of 0.5 mg/mL bovine LPL was used and diluted 1:100 (10 μL+990 μL of PBS).
Preparation of free fatty acid (NEFA) assay: NEFA reagents were purchased from Wako Diagnostics, Wako Life Sciences, Inc. Reagent A was prepared by mixing Coloring Reagent A with Solvent A (225 μL per well). Reagent B was prepared by mixing Coloring Reagent B with Solvent B (75 μL per well). 5 nmoL oleic acid standard was prepared by diluting 20 μL of 1 mM oleic acid stock (WAKO NEFA standard solution) with 180 μL of 0.2% BSA.
as §1, §2

The subject of another assay is apoC-II knockout mice. The experiment in a line: serum TG of apoC-II knockout mice after Intralipid injection. The format is in vivo. The conditions noted are these: peptide IP 1 hour after Intralipid, 5 and 10 μmole/kg, FIG. 37B. Here is the method:
(§3) C57Bl/6 mice (wild-type), apoC-II knockout (apoC-II KO) mice, and apoC-III transgenic mice were used for in vivo study. The C57Bl/6 mice (wild-type) were purchased from Taconic Biosciences Inc. The apoC-II KO mice were created as described in Sakurai et al., J Pharmacol Exp Ther 356:341-353, 2016. The apoC-III transgenic mice were generated by overexpressing human apoC-III in C57Bl/6 mice. See Qu et al., J. Lipid Res. 48:1476-1487, 2007.
(§4) Mice were fasted overnight (approximately 12 hours) before the study and 6 hours during the study, the next day. The apoC-II mimetic peptides were synthetically produced and free of biological contamination (not available as FDA approved compounds/treatment). Peptides were produced and used in sterile conditions and filtered by 0.2 nm filter before injections in a single dose 1-10 μmol/kg body weight (B. W.) administered either subcutaneous injection (S.Q. or S.C.), intraperitoneal injection (I.P.) or intravenous injection (I.V.) (in a sterile, pharmaceutical grade PBS solution at a volume ≤200 μL) as described in Sakurai et al., J Pharmacol Exp Ther 356:341-353, 2016. […]

Another assay has as its system apoC-III transgenic mice. Briefly: serum TG of apoC-III transgenic mice after Intralipid injection. The following applies: peptide IP 1 hour after Intralipid, 5 and 10 μmole/kg, FIG. 39. The format is in vivo. Here is the method:
as §3, §4

The test system of assay [2] is obese monkeys with a plasma TG level of greater than 2 mmol/L. Briefly: in vivo studies in the obese monkey model. Here is the method:
Monkeys with a TG level greater than 2 mmol/L were selected, trained and assigned into 3 groups (control, 1 mg/kg Delta6PV, and 5 mg/kg Delta6PV). The desired dose was injected intravenously into the animals at 0 h time point. The monkeys were monitored over the course of 72 hours and blood samples at different time points were collected for biomarker analysis.

“DWLKAFYDKVAEKLKEAFPAMSTYTGIFTDQVLSVLKGEE (listed as Homo sapiens) [apoC-II-a, excluded from the claimed peptides]”: the “effect on inhibition of LPL by apoC-III” value is “overcame the inhibitory effect of apoC-III and facilitated lipolysis in a dose-dependent manner” in assay [1]; “overcomes the inhibition by apoC-III” in assay [1] (listed as ApoC-II-a).

With “DYLKEVFEKLRDLYEKFTPAVSTYTGIFTDQVLSVLKGEE [Delta6PV]”, the LPL activation entry in the assay with bovine LPL was “activated LPL in vitro”. Further, the “serum TG increase after Intralipid injection” value with apoC-II knockout mice and in the assay on apoC-III transgenic mice was “the TG increase was significantly reduced” each time. Moreover, in assay [2] (1 and 5 mg/kg intravenous), the “dose dependence of effect” value is recorded as “dose-dependent”. In addition, in assay [2] (FIG. 48A), the VLDL level entry is recorded as “marked reduction of the VLDL level”. Further, the LDL level result in assay [2] (FIG. 48B) was “did not change significantly”. The HDL level entry in assay [2] (FIG. 48C) is “did not change significantly”. Besides, in assay [2] (single intravenous injection, 1 and 5 mg/kg, 24 h, 48 h, and 72 h after the injection), the “plasma TG level” value is listed as “significant reduction of plasma TG level”.
